Results published in patent publication US11053204B2, “Pyrimidinyloxy benzene derivatives as herbicides” (FMC Corporation, priority 2015, dated 2021).

Tests used:
Format in all cases: in vivo
[1] = tested on: nightshade (eastern black nightshade, Solanum ptycanthum); test: Test C preemergence, plant response rating
[2] = tested on: Canada thistle (Cirsium arvense); test: Test C postemergence, plant response rating; details: for Plant response rating, Canada Thistle: scale 0 to 100; for Canada Thistle plant response rating: scale 0 to 100 (0 no effect, 100 complete control)
Procedure, shortened: (§1)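 Pre-emergence: seeds sown in loam soil–sand blend or silt loam and sprayed with test chemicals in a non-phytotoxic solvent mixture with surfactant. Post-emergence: plants 2 to 18 cm (1- to 4-leaf stage) in peat-based potting medium, same formulation. Greenhouse 13 to 15 d; visual rating 0 (no effect) to 100 (complete control) versus controls.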

[3] = tested on: buckwheat, wild (wild buckwheat, Polygonum convolvulus); test: Test C postemergence, plant response rating; details: for Plant response rating, Buckwheat, Wild: scale 0 to 100; for Buckwheat, Wild plant response rating: scale 0 to 100 (0 no effect, 100 complete control)
Procedure, shortened: as §1

[4] = tested on: field poppy (Papaver rhoeas); test: Test C postemergence, plant response rating; details: for Plant response rating, Field Poppy: scale 0 to 100; for Field Poppy plant response rating: scale 0 to 100 (0 no effect, 100 complete control)
Procedure, shortened: as §1

[5] = tested on: field violet (Viola arvensis); test: Test C postemergence, plant response rating; details: for Plant response rating, Field Violet: scale 0 to 100; for Field Violet plant response rating: scale 0 to 100 (0 no effect, 100 complete control)
Procedure, shortened: as §1

[6] = tested on: geranium, cutleaf (cutleaf geranium, Geranium dissectum); test: Test C postemergence, plant response rating; details: for Plant response rating, Geranium, Cutleaf: scale 0 to 100; for Geranium, Cutleaf plant response rating: scale 0 to 100 (0 no effect, 100 complete control)
Procedure, shortened: as §1

[7] = tested on: johnsongrass (Sorghum halepense); test: Test C postemergence, plant response rating; details: for Plant response rating, Johnsongrass: scale 0 to 100; for Johnsongrass plant response rating: scale 0 to 100 (0 no effect, 100 complete control)
Procedure, shortened: as §1

[8] = tested on: nightshade (eastern black nightshade, Solanum ptycanthum); test: Test C postemergence, plant response rating; details: for Plant response rating, Nightshade: scale 0 to 100; for Nightshade plant response rating: scale 0 to 100 (0 no effect, 100 complete control)
Procedure, shortened: as §1

[9] = tested on: pigweed, palmer (palmer pigweed, Amaranthus palmeri); test: Test C postemergence, plant response rating; details: for Plant response rating, Pigweed, Palmer: scale 0 to 100; for Pigweed, Palmer plant response rating: scale 0 to 100 (0 no effect, 100 complete control)
Procedure, shortened: as §1

[10] = tested on: speedwell (bird's-eye speedwell, Veronica persica); test: Test C postemergence, plant response rating; details: for Plant response rating, Speedwell: scale 0 to 100; for Speedwell plant response rating: scale 0 to 100 (0 no effect, 100 complete control)
Procedure, shortened: as §1

[11] = tested on: surinam grass (Brachiaria decumbens); test: Test C postemergence, plant response rating; details: for Plant response rating, Surinam Grass: scale 0 to 100; for Surinam Grass plant response rating: scale 0 to 100 (0 no effect, 100 complete control)
Procedure, shortened: as §1

[12] = tested on: wild poinsettia (Euphorbia heterophylla); test: Test C postemergence, plant response rating; details: for Plant response rating, Poinsettia, Wild: scale 0 to 100; for Poinsettia, Wild plant response rating: scale 0 to 100 (0 no effect, 100 complete control)
Procedure, shortened: as §1

[13] = tested on: windgrass (Apera spica-venti); test: Test C postemergence, plant response rating; details: for Plant response rating, Windgrass: scale 0 to 100; for Windgrass plant response rating: scale 0 to 100 (0 no effect, 100 complete control)
Procedure, shortened: as §1

## CCCC(=O)c1c(Br)cccc1Oc1ncc(Cl)cn1 [Compound 75]
[1]; 16 g ai/ha, scale 0 to 100
  Plant response rating, Nightshade: 40
[1]; 31 g ai/ha, scale 0 to 100
  Plant response rating, Nightshade: 75
[1]; 62 g ai/ha, scale 0 to 100
  Plant response rating, Nightshade: 75
[1]; 125 g ai/ha, scale of 0 to 100
  Plant response rating, Nightshade: 80
[2]; 16 g ai/ha
  Plant response rating, Canada Thistle: 70
[2]; 31 g ai/ha
  Plant response rating, Canada Thistle: 75
[2]; 62 g ai/ha
  Canada Thistle plant response rating: 75
[2]; 125 g ai/ha
  Canada Thistle plant response rating: 100
[3]; 16 g ai/ha
  Plant response rating, Buckwheat, Wild: 45
[3]; 31 g ai/ha
  Plant response rating, Buckwheat, Wild: 60
[3]; 62 g ai/ha
  Buckwheat, Wild plant response rating: 80
[3]; 125 g ai/ha
  Buckwheat, Wild plant response rating: 85
[4]; 16 g ai/ha
  Plant response rating, Field Poppy: 70
[4]; 31 g ai/ha
  Plant response rating, Field Poppy: 80
[4]; 62 g ai/ha
  Field Poppy plant response rating: 80
[4]; 125 g ai/ha
  Field Poppy plant response rating: 100
[5]; 16 g ai/ha
  Plant response rating, Field Violet: 80
[5]; 31 g ai/ha
  Plant response rating, Field Violet: 98
[5]; 62 g ai/ha
  Field Violet plant response rating: 98
[5]; 125 g ai/ha
  Field Violet plant response rating: 100
[6]; 16 g ai/ha
  Plant response rating, Geranium, Cutleaf: 30
[6]; 31 g ai/ha
  Plant response rating, Geranium, Cutleaf: 40
[6]; 62 g ai/ha
  Geranium, Cutleaf plant response rating: 35
[6]; 125 g ai/ha
  Geranium, Cutleaf plant response rating: 65
[7]; 16 g ai/ha
  Plant response rating, Johnsongrass: 5
[7]; 31 g ai/ha
  Plant response rating, Johnsongrass: 10
[7]; 62 g ai/ha
  Johnsongrass plant response rating: 10
[7]; 125 g ai/ha
  Johnsongrass plant response rating: 70
[8]; 16 g ai/ha
  Plant response rating, Nightshade: 75
[8]; 31 g ai/ha
  Plant response rating, Nightshade: 80
[8]; 62 g ai/ha
  Nightshade plant response rating: 85
[8]; 125 g ai/ha
  Nightshade plant response rating: 98
[9]; 16 g ai/ha
  Plant response rating, Pigweed, Palmer: 75
[9]; 31 g ai/ha
  Plant response rating, Pigweed, Palmer: 90
[9]; 62 g ai/ha
  Pigweed, Palmer plant response rating: 95
[9]; 125 g ai/ha
  Pigweed, Palmer plant response rating: 85
[10]; 16 g ai/ha
  Plant response rating, Speedwell: 90
[10]; 31 g ai/ha
  Plant response rating, Speedwell: 95
[10]; 62 g ai/ha
  Speedwell plant response rating: 100
[10]; 125 g ai/ha
  Speedwell plant response rating: 100
[11]; 16 g ai/ha
  Plant response rating, Surinam Grass: 10
[11]; 31 g ai/ha
  Plant response rating, Surinam Grass: 15
[11]; 62 g ai/ha
  Surinam Grass plant response rating: 20
[11]; 125 g ai/ha
  Surinam Grass plant response rating: 20
[12]; 16 g ai/ha
  Plant response rating, Poinsettia, Wild: 65
[12]; 31 g ai/ha
  Plant response rating, Poinsettia, Wild: 70
[12]; 62 g ai/ha
  Poinsettia, Wild plant response rating: 80
[12]; 125 g ai/ha
  Poinsettia, Wild plant response rating: 80
[13]; 16 g ai/ha
  Plant response rating, Windgrass: 0
[13]; 31 g ai/ha
  Plant response rating, Windgrass: 5
[13]; 62 g ai/ha
  Windgrass plant response rating: 10
[13]; 125 g ai/ha
  Windgrass plant response rating: 5
